Experimental data published in patent US8017612B2, “Piperazine compound and use thereof as a HCV polymerase inhibitor” (priority 2006, dated 2011).

Legend:
[1] = target: T1, HCV polymerase (NS5B) type 1a (Hepatitis C virus genotype 1a, UniProt P26664); experiment: Assay of enzyme (HCV polymerase) inhibitory activity, type 1a enzyme; assay type: biochemical, HCV type 1a (cloned from the blood of patients)
T1 construct: made in house; host or cells: Escherichia coli (by the 'similar method' of the 1b enzyme)
Outline: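 NS5B Δ47 C-term His6 (type 1a, 1.5 μg/ml); substrate RNA 5 μg/ml; ATP/GTP/CTP 50 μM, UTP 2 μM + [5,6-3H]UTP; Tris pH 7.5, MgCl2 5 mM; 25° C, 60 min. TCA/pyrophosphate stop, GF/B filter, scintillation. IC50 vs no-compound control.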

[2] = target: T2, HCV polymerase (NS5B) type 1b (Hepatitis C virus genotype 1b, UniProt P26663); experiment: Assay of enzyme (HCV polymerase) inhibitory activity, type 1b enzyme; assay type: biochemical, HCV BK strain (type 1b)
T2 construct: a region encoding NS5B (J Virol 1991 March, 65(3), 1105-13, 544 amino acids after deletion of 47 amino acids on the C-terminal); 6xHis (C); made in house; host or cells: Escherichia coli
Outline: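 Rxn: NS5B 1b (BK, ΔC47, His6) 0.5 μg/ml; substrate RNA 5 μg/ml; ATP/GTP/CTP 50 μM, UTP 2 μM + [5,6-3H]UTP; 20 mM Tris pH 7.5, 5 mM MgCl2, 50 mM NaCl, 1 mM EDTA/DTT. 25 °C, 60 min. Stop with TCA/pyrophosphate, filter, scintillation count; IC50 vs. untreated.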

[3] = HCV polymerase inhibitory activity (IC50), 1a, type 1a enzyme 1.5 μg/ml, 25° C., 60 min
[4] = HCV polymerase inhibitory activity (IC50), 1b, type 1b enzyme 0.5 μg/ml, 25° C., 60 min
[5] = HCV polymerase inhibitory activity IC50, 1a, type 1a enzyme
[6] = HCV polymerase inhibitory activity IC50, 1b, type 1b enzyme

Compound	IC50 [1, 3]	IC50 [2, 4]	IC50 [1, 5]	IC50 [2, 6]
CC(C)c1ccc(CNC(=O)[C@H]2CN(c3nccn3C)CCN2S(=O)(=O)c2ccc(C(F)(F)F)cc2)cc1 [Example 352, (R)-4-(1-methyl-1H-imidazol-2-yl)-1-(4-trifluoromethyl-benzenesulfonyl)-piperazine-2-carboxylic acid 4-isopropyl-benzylamide]	> 1000 nM	100 to 1000 nM		
O=C(NCc1ccc(OC(F)F)cc1)[C@H]1CN(c2nc3nc(C4CC4)ncc3s2)CCN1S(=O)(=O)c1ccc(OC(F)F)cc1 [Example 1014, (R)-4-(5-cyclopropyl-thiazolo[4,5-d]pyrimidin-2-yl)-1-(4-difluoromethoxy-benzenesulfonyl)-piperazine-2-carboxylic acid 4-difluoromethoxy-benzylamide]			< 100 nM	< 100 nM
Cc1cc(=O)nc2sc(N3CCN(S(=O)(=O)c4ccc(OC(F)(F)F)cc4)[C@@H](C(=O)NCc4ccc(OC(F)(F)F)cc4)C3)nn12 [Example 1019, (R)-4-(5-methyl-7-oxo-7H-[1,3,4]thiadiazolo[3,2-a]pyrimidin-2-yl)-1-(4-trifluoromethoxy-benzenesulfonyl)-piperazine-2-carboxylic acid 4-trifluoromethoxy-benzylamide]			< 100 nM	< 100 nM
O=C(NCc1ccc(OC(F)(F)F)cc1)[C@H]1CN(c2cnc3cncc(Br)c3n2)CCN1S(=O)(=O)c1ccc(OC(F)(F)F)cc1 [Example 799, (R)-4-(8-bromo-pyrido[3,4-b]pyrazin-2-yl)-1-(4-trifluoromethoxy-benzenesulfonyl)-piperazine-2-carboxylic acid 4-trifluoromethoxy-benzylamide]			< 100 nM	< 100 nM
O=C(NCc1ccc(OC(F)(F)F)cc1)[C@H]1CN(c2nc3nc(O)nc(O)c3s2)CCN1S(=O)(=O)c1ccc(OC(F)(F)F)cc1 [Example 888, (R)-4-(5,7-dihydroxy-thiazolo[4,5-d]pyrimidin-2-yl)-1-(4-trifluoromethoxy-benzenesulfonyl)-piperazine-2-carboxylic acid 4-trifluoromethoxy-benzylamide]			< 100 nM	< 100 nM
O=C(NCc1ccc(OC(F)(F)F)cc1)[C@H]1CN(c2nc3nc(Cl)ncc3s2)CCN1S(=O)(=O)c1ccc(C(F)(F)F)cc1 [Example 887, (R)-4-(5-chloro-thiazolo[4,5-d]pyrimidin-2-yl)-1-(4-trifluoromethyl-benzenesulfonyl)-piperazine-2-carboxylic acid 4-trifluoromethoxy-benzylamide]			< 100 nM	< 100 nM
CC(C)c1ccc(CNC(=O)[C@H]2CN(C(=O)Cn3cncn3)CCN2S(=O)(=O)c2ccc(C(F)(F)F)cc2)cc1 [Example 229, (R)-4-(2-[1,2,4]triazol-1-yl-acetyl)-1-(4-trifluoromethyl-benzenesulfonyl)-piperazine-2-carboxylic acid 4-isopropyl-benzylamide]	< 100 nM	< 100 nM		
CC(C)c1ccc(S(=O)(=O)N2CCN(C3=NCCO3)CC2C(=O)NCc2ccc(C(F)(F)F)cc2)cc1 (stereo not drawn) [Example 133, 4-(4,5-dihydro-oxazol-2-yl)-1-(4-isopropyl-benzenesulfonyl)-piperazine-2-carboxylic acid 4-trifluoromethyl-benzylamide]	> 1000 nM	> 1000 nM		
CCCc1ccc(CNC(=O)[C@H]2CN(c3nc(C(F)(F)F)c(C(=O)OCC)s3)CCN2S(=O)(=O)c2ccc(OC(F)(F)F)cc2)cc1 [Example 444, 2-[(R)-3-(4-propyl-benzylcarbamoyl)-4-(4-trifluoromethoxy-benzenesulfonyl)-piperazin-1-yl]-4-trifluoromethyl-thiazole-5-carboxylic acid ethyl ester]	100 to 1000 nM	100 to 1000 nM		
CCOC(=O)c1nnc(NC(=O)N2CCN(S(=O)(=O)c3ccc(OC(F)(F)F)cc3)[C@@H](C(=O)NCc3ccc(C(F)(F)CC)cc3)C2)s1 [Example 477, 5-{[(R)-3-[4-(1,1-difluoro-propyl)-benzylcarbamoyl]-4-(4-trifluoromethoxy-benzenesulfonyl)-piperazine-1-carbonyl]-amino}-[1,3,4]thiadiazole-2-carboxylic acid ethyl ester]	> 1000 nM	> 1000 nM		
CCC(F)(F)c1ccc(CNC(=O)[C@H]2CN(c3nc4ccccc4[nH]3)CCN2S(=O)(=O)c2ccc(OC(F)(F)F)cc2)cc1 [Example 758, (R)-4-(1H-benzimidazol-2-yl)-1-(4-trifluoromethoxy-benzenesulfonyl)-piperazine-2-carboxylic acid 4-(1,1-difluoro-propyl)-benzylamide]			< 100 nM	< 100 nM
O=C(NCc1ccc(OC(F)F)cc1F)[C@H]1CN(c2nc3nc(C4CC4)ncc3s2)CCN1S(=O)(=O)c1ccc(OC(F)(F)F)cc1 [Example 1045, (R)-4-(5-cyclopropyl-thiazolo[4,5-d]pyrimidin-2-yl)-1-(4-trifluoromethoxy-benzenesulfonyl)-piperazine-2-carboxylic acid 4-difluoromethoxy-2-fluoro-benzylamide]			< 100 nM	< 100 nM
CCC(F)(F)c1ccc(CNC(=O)[C@H]2CN(c3cnc4cncnc4n3)CCN2S(=O)(=O)c2ccc(-c3nc(=O)o[nH]3)cc2)cc1 [Example 759, (R)-1-[4-(5-oxo-2,5-dihydro-[1,2,4]oxadiazol-3-yl)-benzenesulfonyl]-4-pteridin-7-yl-piperazine-2-carboxylic acid 4-(1,1-difluoro-propyl)-benzylamide]			< 100 nM	< 100 nM
CCC(F)(F)c1ccc(CNC(=O)[C@H]2CN(c3cnc4cncnc4n3)CCN2S(=O)(=O)c2cc3ccccc3s2)cc1 [Example 738, (R)-1-(benzo[b]thiophene-2-sulfonyl)-4-pteridin-7-yl-piperazine-2-carboxylic acid 4-(1,1-difluoro-propyl)-benzylamide]			< 100 nM	< 100 nM
CCOC(=O)C(=O)N1CCN(S(=O)(=O)c2ccc(C(F)(F)F)cc2)[C@@H](C(=O)NCc2ccc(C(C)C)cc2)C1 [Example 290, [(R)-3-(4-isopropyl-benzylcarbamoyl)-4-(4-trifluoromethyl-benzenesulfonyl)-piperazin-1-yl]-oxo-acetic acid ethyl ester]	> 1000 nM	100 to 1000 nM		
Cc1nc(N2CCN(S(=O)(=O)c3ccc(OC(F)(F)F)cc3)[C@@H](C(=O)NCc3ccc(OC(F)(F)F)cc3)C2)cnc1C(=O)O [Example 809, (R)-6′-methyl-4-(4-trifluoromethoxy-benzenesulfonyl)-3-(4-trifluoromethoxy-benzylcarbamoyl)-3,4,5,6-tetrahydro-2H-[1,2′]bipyrazinyl-5′-carboxylic acid]			< 100 nM	< 100 nM
NC(=O)c1cncc2sc(N3CCN(S(=O)(=O)c4ccc(OC(F)(F)F)cc4)[C@@H](C(=O)NCc4ccc(OC(F)(F)F)cc4)C3)nc12 [Example 1123]			< 100 nM	< 100 nM
CC(=O)N1CCN(S(=O)(=O)c2ccc(C(C)C)cc2)[C@@H](C(=O)NCc2ccc(-c3csnn3)cc2)C1 [Example 492, (R)-4-acetyl-1-(4-isopropyl-benzenesulfonyl)-piperazine-2-carboxylic acid 4-[1,2,3]thiadiazol-4-yl-benzylamide]	> 1000 nM	100 to 1000 nM		
